# From ChEMBL document CHEMBL4715706, “Discovery of Benzotriazolo[4,3-d][1,4]diazepines as Orally Active Inhibitors of BET Bromodomains” (ACS Med Chem Lett, 2016)
# System: not listed separately
# Assay: Intrinsic clearance in rat liver microsomes
# Conditions: not given
row,SMILES,microsomal CLint [µL/min/mg]
1,Cc1nnc2n1-c1ccccc1N(c1ccc(Cl)cc1)CC2C (stereo not given),25
2,Cc1nnc2n1-c1ccccc1N(c1ccc(Cl)cc1)CC2,126

# Target: Bromodomain-containing protein 4 (Homo sapiens, UniProt O60885)
# Conditions: not given
row,SMILES,IC50 [nM]
1,Cc1ccc(-c2ccc3c(c2)N(c2ccc(Cl)cc2)C[C@@H](C)c2nnc(C)n2-3)cn1,46
2,Cc1nnc2n1-c1ccc(-c3ccc(N)nc3)cc1N(c1ccc(Cl)cc1)C[C@@H]2C,790
3,Cc1nnc2n1-c1ccccc1NCC2,62000
4,Cc1nnc2n1-c1ccc(-c3ccc(=O)n(C)c3)cc1N(c1ccc(Cl)cc1)C[C@H]2C,25
5,Cc1nnc2n1-c1ccccc1N(c1ccc(Cl)cc1)CC2C (stereo not given),350
6,Cc1nnc2n1-c1ccccc1N(c1ccc(Cl)cc1)CC2,1560

# The next lines start with the values.
row,IC50 [nM],SMILES
1,280,Cc1ncnn1-c1ccc2c(c1)N(c1ccc(Cl)cc1)C[C@@H](C)c1nnc(C)n1-2
2,74,Cc1nnc2n1-c1ccc(-n3cncn3)cc1N(c1ccc(Cl)cc1)C[C@H]2C
3,1200,Cc1nnc2n1-c1ccc(S(C)(=O)=O)cc1N(c1ccc(Cl)cc1)C[C@H]2C
4,65,Cc1nnc2n1-c1ccc(C(N)=O)cc1N(c1ccc(Cl)cc1)C[C@H]2C

# System: not listed separately
# Assay: Intrinsic clearance in mouse liver microsomes
# Conditions: not given
row,SMILES,microsomal CLint [µL/min/mg]
1,Cc1nnc2n1-c1ccccc1N(c1ccc(Cl)cc1)CC2C (stereo not given),110
2,Cc1nnc2n1-c1ccccc1N(c1ccc(Cl)cc1)CC2,500

# System: not listed separately
# Assay: Protein binding in mouse plasma
# Conditions: not given
row,SMILES,fraction unbound
1,Cc1nnc2n1-c1ccccc1N(c1ccc(Cl)cc1)CC2C (stereo not given),0.04
2,Cc1nnc2n1-c1ccccc1N(c1ccc(Cl)cc1)CC2,0.07

# System: not listed separately
# Assay: Inhibition of BET in human THP-1 cells assessed as suppression of LPS-induced IL-6 release measured after 16 hrs by chemiluminescence ELISA
# Type: cell-based
# Conditions: THP-1, 16 h
row,SMILES,EC50 [nM]
1,Cc1ccc(-c2ccc3c(c2)N(c2ccc(Cl)cc2)C[C@@H](C)c2nnc(C)n2-3)cn1,100
2,Cc1nnc2n1-c1ccc(-c3ccc(N)nc3)cc1N(c1ccc(Cl)cc1)C[C@@H]2C,790
3,Cc1nnc2n1-c1ccc(-c3ccc(=O)n(C)c3)cc1N(c1ccc(Cl)cc1)C[C@H]2C,36
4,Cc1nnc2n1-c1ccccc1N(c1ccc(Cl)cc1)CC2C (stereo not given),290
5,Cc1nnc2n1-c1ccccc1N(c1ccc(Cl)cc1)CC2,2300

# Continued, values first:
row,EC50 [nM],SMILES
1,450,Cc1ncnn1-c1ccc2c(c1)N(c1ccc(Cl)cc1)C[C@@H](C)c1nnc(C)n1-2
2,41,Cc1nnc2n1-c1ccc(-n3cncn3)cc1N(c1ccc(Cl)cc1)C[C@H]2C
3,670,Cc1nnc2n1-c1ccc(S(C)(=O)=O)cc1N(c1ccc(Cl)cc1)C[C@H]2C
4,96,Cc1nnc2n1-c1ccc(C(N)=O)cc1N(c1ccc(Cl)cc1)C[C@H]2C

# System: not listed separately
# Assay: Intrinsic clearance in dog liver microsomes
# Conditions: not given
row,SMILES,microsomal CLint [µL/min/mg]
1,Cc1nnc2n1-c1ccccc1N(c1ccc(Cl)cc1)CC2C (stereo not given),83
2,Cc1nnc2n1-c1ccccc1N(c1ccc(Cl)cc1)CC2,390

# System: not listed separately
# Assay: Protein binding in rat plasma
# Type: ADME, cell-free
# Conditions: read-out: PPB (converted)
row,SMILES,fraction unbound
1,Cc1nnc2n1-c1ccccc1N(c1ccc(Cl)cc1)CC2C (stereo not given),0.04
2,Cc1nnc2n1-c1ccccc1N(c1ccc(Cl)cc1)CC2,0.05

# System: not listed separately
# Assay: Protein binding in dog plasma
# Conditions: not given
row,SMILES,fraction unbound
1,Cc1nnc2n1-c1ccccc1N(c1ccc(Cl)cc1)CC2C (stereo not given),0.05
2,Cc1nnc2n1-c1ccccc1N(c1ccc(Cl)cc1)CC2,0.05

# System: not listed separately
# Assay: Protein binding in human plasma
# Type: ADME, cell-free
# Conditions: read-out: PPB (converted)
row,SMILES,fraction unbound
1,Cc1nnc2n1-c1ccccc1N(c1ccc(Cl)cc1)CC2C (stereo not given),0.03
2,Cc1nnc2n1-c1ccccc1N(c1ccc(Cl)cc1)CC2,0.05

# System: not listed separately
# Assay: Intrinsic clearance in human liver microsomes
# Conditions: not given
row,SMILES,microsomal CLint [µL/min/mg]
1,Cc1nnc2n1-c1ccccc1N(c1ccc(Cl)cc1)CC2C (stereo not given),24
2,Cc1nnc2n1-c1ccccc1N(c1ccc(Cl)cc1)CC2,154
